# US20240069010A1, “TISSUE ORGANOID BIOPRINTING AND HIGH-THROUGHPUT SCREENING METHODOLOGY” (priority 2020, published 2024)
# Assays:
# MCF-7 organoids = experiment: HSLCI mass tracking of bioprinted organoids in drug screening; assay type: cell-based; settings: for Organoid Behavior (%) Stable / Organoid Behavior (%) Gained Mass / Organoid Behavior (%) Lost Mass: MCF-7 organoids; for Organoid Behavior (%) Stable: mass change <10%; for Organoid Behavior (%) Gained Mass: mass increase >10%; for Organoid Behavior (%) Lost Mass: mass loss >10%
# Source text: (§1) Cells were bioprinted using a CELLINK BioX with a Temperature-Controlled Printhead. Gcode files were written to print the desired single-layer geometry. We wrote standardized blocks of Gcode encode the print path for the repeated geometries. MATLAB (MathWorks, Inc.) was used to integrate these standardized blocks into full Gcode files with the defined coordinates for each well. We used 8-well plates when printing the larger constructs as the depth of the well in a standard 24-well plate prohibited the use of 0.5″ length needles. Large rings were necessary to deposit a sufficient number of cells for RNA-Seq and IHC. Four rings with a diameter of 14.5 mm were printed for RNA sequencing (approximately 200,000 cells total), while four sets of concentric 14.5 mm, 12.5 mm, and 10.5 mm diameter rings were used for IHC analysis (approximately 500,000 cells total). We printed mini-squares with side length 3.9 mm for drug screening and HSLCI imaging. The mini-squares were inscribed within the circular well with sides parallel to the sides of the well plate. The open center of the constructs facilitates automatic manipulation with fluid handling equipment while the sides of the square are positioned to maximize the number of organoids imaged by HSLCI. The bioprinting process utilized the same material deposited for manually seeded organoids. A single cell suspension, aggregates or clusters in a 3:4 mixture of MammoCult™ and Matrigel® was prepared on ice. After vortexing briefly to homogenize, the mixture was transferred into a 3 mL syringe by removing the plunger and capping the opposite end. Once the plunger was replaced, the syringe was inverted, and bubbles were forced out of the tip. The material was then transferred to a room temperature 3 mL bioprinter cartridge (CELLINK) by connecting the syringe and cartridge with a double-sided female Luer lock adapter (CELLINK). Any air bubbles in the syringe were removed and the loaded cartridge was incubated in a rotating incubator (Enviro-Genie, Scientific Industries) for 30 minutes at the print temperature.
# (§2) During the incubation period, the printer was sterilized with the built-in UV irradiation function and the printhead was set to the print temperature. […] The well masks were autoclaved prior to use. The masks were inserted into the well plate and pressed in contact with the glass surface. Rubber bands were used to hold the masks in place and ensure conformal contact was maintained throughout the plasma treatment. The well plates were treated with oxygen plasma in a PE-25 (Plasma Etch) for 30-90 seconds, 15 minutes prior to bioprinting. After plasma treatment, the well plate was placed in the bioprinter and Automatic Bed Levelling (ABL) was performed.
# (§3) Once the incubation period ended, we attached a 0.5″ 25-gauge needle and loaded the cartridge into the pre-cooled printhead. We primed the needle by extruding a small volume of material at 15 kPa prior to calibrating the printer. Just before printing, we cleared the needle of the gelled material by extruding a small volume using 40 kPa prior to starting the print. To create constructs of the appropriate thicknesses, prints in 8-well plates were extruded at 15 kPa while prints in 96-well plates were extruded at 12-15 kPa. […] After printing, the constructs were incubated at 37° C. for at least 30 minutes to solidify the matrix and 100 μL of MammoCult™ medium was then added.
# (§4) The HSLCI platform was installed inside a standard cell culture incubator. For all growth kinetics studies and drug screening, organoids were imaged in 96-well glass-bottom plates (Cellvis P96-1.5H-N) using a 40× objective (Nikon, NA 0.75). Organoids were seeded as single-cell suspensions in a 3:4 mixture of MammoCult™ and Matrigel® as described above and were grown at 37° C. and 5% CO2 in MammoCult™ medium supplemented with 1% antibiotic-antimycotic (Gibco 15240-062).
# BT-474 organoids = experiment: as above; assay type: cell-based; settings: for Organoid Behavior (%) Lost Mass: mass loss >10%; for Organoid Behavior (%) Stable: mass change <10%; for Organoid Behavior (%) Gained Mass: mass increase >10%
# Source text: as §1, §2, §3, §4
# [1] = in vivo; cited from earlier work
smiles,measurement,setting,value
"CS(=O)(=O)CCNCc1ccc(-c2ccc3ncnc(Nc4ccc(OCc5cccc(F)c5)c(Cl)c4)c3c2)o1 [Lapatinib, lapatinib]","Mean mass of MCF-7 organoids, Mean mass ± SD","MCF-7 organoids; 0.1 μM, 6 hours of treatment",2.00 ± 1.43 ng
same,"Mean mass of MCF-7 organoids, Mean mass ± SD","MCF-7 organoids; 0.1 μM, 48 hours of treatment",2.76 ± 2.35 ng
same,"Mean mass of MCF-7 organoids, Mean mass ± SD","MCF-7 organoids; 1 μM, 6 hours of treatment",2.20 ± 1.33 ng
same,"Mean mass of MCF-7 organoids, Mean mass ± SD","MCF-7 organoids; 1 μM, 48 hours of treatment",2.71 ± 2.09 ng
same,"Mean mass of MCF-7 organoids, Mean mass ± SD","MCF-7 organoids; 10 μM, 6 hours of treatment",2.30 ± 1.48 ng
same,"Mean mass of MCF-7 organoids, Mean mass ± SD","MCF-7 organoids; 10 μM, 48 hours of treatment",2.46 ± 1.90 ng
same,"Mean mass of MCF-7 organoids, Mean mass ± SD","MCF-7 organoids; 50 μM, 6 hours of treatment",1.71 ± 0.84 ng
same,"Mean mass of MCF-7 organoids, Mean mass ± SD","MCF-7 organoids; 50 μM, 48 hours of treatment",1.32 ± 1.03 ng
same,"Mean mass of MCF-7 organoids, Mean mass ± SD","MCF-7 organoids; 50 μM, 48 hours of treatment, listed as lapatinib",1.32 ± 1.06 ng
same,Organoid Behavior (%) Stable,"MCF-7 organoids; 0.1 μM, 12 h",73.5%
same,Organoid Behavior (%) Gained Mass,"MCF-7 organoids; 0.1 μM, 12 h",17.6%
same,Organoid Behavior (%) Lost Mass,"MCF-7 organoids; 0.1 μM, 12 h",8.8%
same,Organoid Behavior (%) Stable,"MCF-7 organoids; 0.1 μM, 24 h",56.3%
same,Organoid Behavior (%) Gained Mass,"MCF-7 organoids; 0.1 μM, 24 h",28.1%
same,Organoid Behavior (%) Lost Mass,"MCF-7 organoids; 0.1 μM, 24 h",15.6%
same,Organoid Behavior (%) Stable,"MCF-7 organoids; 0.1 μM, 48 h",34.4%
same,Organoid Behavior (%) Gained Mass,"MCF-7 organoids; 0.1 μM, 48 h",46.9%
same,Organoid Behavior (%) Lost Mass,"MCF-7 organoids; 0.1 μM, 48 h",18.8%
same,Organoid Behavior (%) Stable,"MCF-7 organoids; 1 μM, 12 h",88.2%
same,Organoid Behavior (%) Gained Mass,"MCF-7 organoids; 1 μM, 12 h",8.8%
same,Organoid Behavior (%) Lost Mass,"MCF-7 organoids; 1 μM, 12 h",2.9%
same,Organoid Behavior (%) Stable,"MCF-7 organoids; 1 μM, 24 h",45.2%
same,Organoid Behavior (%) Gained Mass,"MCF-7 organoids; 1 μM, 24 h",45.2%
same,Organoid Behavior (%) Lost Mass,"MCF-7 organoids; 1 μM, 24 h",9.7%
same,Organoid Behavior (%) Stable,"MCF-7 organoids; 1 μM, 48 h",26.3%
same,Organoid Behavior (%) Gained Mass,"MCF-7 organoids; 1 μM, 48 h",55.3%
same,Organoid Behavior (%) Lost Mass,"MCF-7 organoids; 1 μM, 48 h",18.4%
same,Organoid Behavior (%) Stable,"MCF-7 organoids; 10 μM, 12 h",84.1%
same,Organoid Behavior (%) Gained Mass,"MCF-7 organoids; 10 μM, 12 h",6.8%
same,Organoid Behavior (%) Lost Mass,"MCF-7 organoids; 10 μM, 12 h",9.1%
same,Organoid Behavior (%) Stable,"MCF-7 organoids; 10 μM, 24 h",56.5%
same,Organoid Behavior (%) Gained Mass,"MCF-7 organoids; 10 μM, 24 h",26.1%
same,Organoid Behavior (%) Lost Mass,"MCF-7 organoids; 10 μM, 24 h",17.4%
same,Organoid Behavior (%) Stable,"MCF-7 organoids; 10 μM, 48 h",32.4%
same,Organoid Behavior (%) Gained Mass,"MCF-7 organoids; 10 μM, 48 h",32.4%
same,Organoid Behavior (%) Stable,"MCF-7 organoids; 50 μM, 12 h",58.6%
same,Organoid Behavior (%) Gained Mass,"MCF-7 organoids; 50 μM, 12 h",6.9%
same,Organoid Behavior (%) Stable,"MCF-7 organoids; 50 μM, 24 h",39.3%
same,Organoid Behavior (%) Gained Mass,"MCF-7 organoids; 50 μM, 24 h",14.3%
same,Organoid Behavior (%) Lost Mass,"MCF-7 organoids; 50 μM, 24 h",46.4%
same,Organoid Behavior (%) Stable,"MCF-7 organoids; 50 μM, 48 h",43.5%
same,Organoid Behavior (%) Gained Mass,"MCF-7 organoids; 50 μM, 48 h",4.3%
same,Organoid Behavior (%) Lost Mass,"MCF-7 organoids; 50 μM, 48 h",52.2%
same,"Mean mass of BT-474 organoids, Mean mass ± SD","BT-474 organoids; 0.1 μM, 6 hours of treatment",1.84 ± 1.21 ng
same,"Mean mass of BT-474 organoids, Mean mass ± SD","BT-474 organoids; 0.1 μM, 48 hours of treatment",2.33 ± 1.58 ng
same,"Mean mass of BT-474 organoids, Mean mass ± SD","BT-474 organoids; 1 μM, 6 hours of treatment",1.58 ± 0.78 ng
same,"Mean mass of BT-474 organoids, Mean mass ± SD","BT-474 organoids; 1 μM, 48 hours of treatment",1.48 ± 0.66 ng
same,"Mean mass of BT-474 organoids, Mean mass ± SD","BT-474 organoids; 10 μM, 6 hours of treatment",1.74 ± 0.88 ng
same,"Mean mass of BT-474 organoids, Mean mass ± SD","BT-474 organoids; 10 μM, 48 hours of treatment",1.42 ± 0.75 ng
same,"Mean mass of BT-474 organoids, Mean mass ± SD","BT-474 organoids; 50 μM, 6 hours of treatment",1.58 ± 0.70 ng
same,"Mean mass of BT-474 organoids, Mean mass ± SD","BT-474 organoids; 50 μM, 48 hours of treatment",0.92 ± 0.48 ng
same,Organoid Behavior (%) Lost Mass,"BT-474 organoids; BT-474 organoids, 0.1 μM, 12 h",3.1%
same,Organoid Behavior (%) Stable,"BT-474 organoids; BT-474 organoids, 0.1 μM, 24 h",45.6%
same,Organoid Behavior (%) Gained Mass,"BT-474 organoids; BT-474 organoids, 0.1 μM, 24 h",49.1%
same,Organoid Behavior (%) Lost Mass,"BT-474 organoids; BT-474 organoids, 0.1 μM, 24 h",5.3%
same,Organoid Behavior (%) Stable,"BT-474 organoids; BT-474 organoids, 0.1 μM, 48 h",25.8%
same,Organoid Behavior (%) Gained Mass,"BT-474 organoids; BT-474 organoids, 0.1 μM, 48 h",67.7%
same,Organoid Behavior (%) Lost Mass,"BT-474 organoids; BT-474 organoids, 0.1 μM, 48 h",6.5%
same,Organoid Behavior (%) Lost Mass,"BT-474 organoids; BT-474 organoids, 1 μM, 12 h",7.4%
same,Organoid Behavior (%) Stable,"BT-474 organoids; BT-474 organoids, 1 μM, 24 h",54.2%
same,Organoid Behavior (%) Gained Mass,"BT-474 organoids; BT-474 organoids, 1 μM, 24 h",20.3%
same,Organoid Behavior (%) Lost Mass,"BT-474 organoids; BT-474 organoids, 1 μM, 24 h",25.4%
same,Organoid Behavior (%) Stable,"BT-474 organoids; BT-474 organoids, 1 μM, 48 h",50.0%
same,Organoid Behavior (%) Gained Mass,"BT-474 organoids; BT-474 organoids, 1 μM, 48 h",27.5%
same,Organoid Behavior (%) Lost Mass,"BT-474 organoids; BT-474 organoids, 1 μM, 48 h",22.5%
same,Organoid Behavior (%) Gained Mass,"BT-474 organoids; BT-474 organoids, 10 μM, 12 h",19.6%
same,Organoid Behavior (%) Lost Mass,"BT-474 organoids; BT-474 organoids, 10 μM, 12 h",7.1%
same,Organoid Behavior (%) Stable,"BT-474 organoids; BT-474 organoids, 10 μM, 24 h",60.3%
same,Organoid Behavior (%) Gained Mass,"BT-474 organoids; BT-474 organoids, 10 μM, 24 h",9.5%
same,Organoid Behavior (%) Lost Mass,"BT-474 organoids; BT-474 organoids, 10 μM, 24 h",30.2%
same,Organoid Behavior (%) Stable,"BT-474 organoids; BT-474 organoids, 10 μM, 48 h",47.2%
same,Organoid Behavior (%) Gained Mass,"BT-474 organoids; BT-474 organoids, 10 μM, 48 h",15.1%
same,Organoid Behavior (%) Lost Mass,"BT-474 organoids; BT-474 organoids, 10 μM, 48 h",37.7%
same,Organoid Behavior (%) Lost Mass,"BT-474 organoids; BT-474 organoids, 50 μM, 12 h",18.5%
same,Organoid Behavior (%) Stable,"BT-474 organoids; BT-474 organoids, 50 μM, 24 h",55.6%
same,Organoid Behavior (%) Gained Mass,"BT-474 organoids; BT-474 organoids, 50 μM, 24 h",9.7%
same,Organoid Behavior (%) Lost Mass,"BT-474 organoids; BT-474 organoids, 50 μM, 24 h",34.7%
same,Organoid Behavior (%) Gained Mass,"BT-474 organoids; BT-474 organoids, 50 μM, 48 h",3.8%
same,Organoid Behavior (%) Lost Mass,"BT-474 organoids; BT-474 organoids, 50 μM, 48 h",84.6%
same,lowest concentration at which organoids were affected (average mass),"BT-474 organoids; BT-474 organoids, 48 h",1 µM
same,maximum plasma concentration reported,[1],4.2 µM
